Measured values from patent publication US7622506B2, “Naphthalenedione compounds for treating inflammation related disorders and microbial infection” (SunTen Phytotech Co., Ltd., priority 2006, dated 2009).
Read-outs that look alike come from different tables or passages of the source.

What was measured:
[1] = test system: methicillin-resistant Staphylococcus aureus (ATCC33591); assay: Growth inhibition of methicillin-resistant Staphylococcus aureus (ATCC33591); type: cell-based; conditions: Table 5; repeated with various concentrations
Text: In this example, the inhibition by the aforementioned compounds or extracts on the growth of methicillin-resistant Staphylococcus aureus (ATCC33591) was studied by a method modified from those described in Modugno et al., Antimicrobial Agents and Chemotherapy, 1994, 38: 2362-2368, and Misiek et al., Antimicrobial Agents Chemotherapy, 1973, 3: 40-48.
The above experiments on Staphylococcus aureus and Propionibacterium acnes were repeated using various concentrations of the compounds.

5-Lipoxygenase = target: T1, 5-Lipoxygenase (Homo sapiens, UniProt P09917); assay: Inhibition of 5-Lipoxygenase activity; type: biochemical
T1 sequence (P09917 1-674): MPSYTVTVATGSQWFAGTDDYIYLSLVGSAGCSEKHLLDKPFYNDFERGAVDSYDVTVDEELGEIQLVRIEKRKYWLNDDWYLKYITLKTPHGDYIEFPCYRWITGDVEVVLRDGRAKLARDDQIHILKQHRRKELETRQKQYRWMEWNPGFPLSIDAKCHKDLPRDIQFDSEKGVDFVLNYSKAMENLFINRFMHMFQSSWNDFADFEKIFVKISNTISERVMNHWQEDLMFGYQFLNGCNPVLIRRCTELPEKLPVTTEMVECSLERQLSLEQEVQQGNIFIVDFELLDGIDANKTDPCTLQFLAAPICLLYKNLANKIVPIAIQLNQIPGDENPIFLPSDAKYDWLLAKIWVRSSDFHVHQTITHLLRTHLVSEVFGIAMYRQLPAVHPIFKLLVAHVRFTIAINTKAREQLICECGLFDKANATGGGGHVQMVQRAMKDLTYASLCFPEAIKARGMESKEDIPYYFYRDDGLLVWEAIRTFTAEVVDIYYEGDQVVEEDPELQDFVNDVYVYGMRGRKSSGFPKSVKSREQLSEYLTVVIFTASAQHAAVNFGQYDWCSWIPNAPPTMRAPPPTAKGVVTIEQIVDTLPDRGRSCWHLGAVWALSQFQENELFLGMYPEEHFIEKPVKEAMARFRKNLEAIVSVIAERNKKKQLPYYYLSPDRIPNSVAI
Text: 5-Lipoxygenase has been known to be a key enzyme in the bio-synthesis of leukotrienes, important mediators in inflammatory and allergic processes. […] The experiment was repeated using various concentrations of the compounds.

[2] = 5-Lipoxygenase, IC50 (μM), Table 2A
[3] = Table 2A, concentration 10 μM, read-out: % Inhibition
[4] = Table 2A, read-out: 5-Lipoxygenase, IC50
[5] = Table 2B, read-out: 5-Lipoxygenase, IC50

| Compound | Anti-microbial Activity, effective concentration range, MRSA (μM) [1] | inhibition at 10 µM (5-Lipoxygenase) [%] | Anti-microbial Activity, effective concentration range, MRSA [1] [µM] | inhibition at 10 µM (5-Lipoxygenase; [3]) [%] | IC50 (5-Lipoxygenase; [4]) [µM] | also measured |
| --- | --- | --- | --- | --- | --- | --- |
| CC(=O)O[C@H](CC=C(C)C)C1=CC(=O)c2c(O)ccc(O)c2C1=O [ASK, (R)-1-(5,8-dihydroxy-1,4-dioxo-1,4-dihydronaphthalen-2-yl)-4-methylpent-3-enyl acetate] | 0.9~3.0 μM | 99 |  |  |  | IC50 (5-Lipoxygenase; [2]): 1.46 µM |
| CC(C)=CC[C@@H](OC(=O)C=C(C)C)C1=CC(=O)c2c(O)ccc(O)c2C1=O [BSK] |  |  | 2.8 | 99 | 1.2 |  |
| Cc1cc(C2CCCCC2)n(O)c(=O)c1 [Ciclpirox Olamine, reference compound] |  |  | 37.3 |  |  | inhibition at 30 µM (5-Lipoxygenase; Table 2B, concentration 30 μM): 66%; IC50 (5-Lipoxygenase; [5]): 16.9 µM |
| CC(C)=CCCC1=CC(=O)c2c(O)ccc(O)c2C1=O [DSK, 5,8-dihydroxy-2-(4-methylpent-3-enyl)naphthalene-1,4-dione] | 7.8~26.0 μM | 53 |  |  |  | inhibition at 10 µg/mL (5-Lipoxygenase): 64%; IC50 (5-Lipoxygenase; [2]): 7.01 µM; IC50 (5-Lipoxygenase; 5-Lipoxygenase, IC50, Table 2B): 20.1 µM |
| CC(C)=CC[C@@H](OC(=O)C(C)C)C1=CC(=O)c2c(O)ccc(O)c2C1=O [ISK, (R)-1-(5,8-dihydroxy-1,4-dioxo-1,4-dihydronaphthalen-2-yl)-4-methylpent-3-enyl isobutyrate] |  |  | 7.7 | 98 | 1.54 |  |
| CCC(C)C(=O)O[C@H](CC=C(C)C)C1=CC(=O)c2c(O)ccc(O)c2C1=O (some centres unmarked) [MBSK, 1-(5,8-dihydroxy-1,4-dioxo-1,4-dihydronaphthalen-2-yl)-4-methylpent-3-enyl 2-methylbutanoate] |  |  | 2.7 | 98 | 1.37 |  |
| CC(C)=CC[C@@H](O)C1=CC(=O)c2c(O)ccc(O)c2C1=O [SK, (R)-5,8-dihydroxy-2-(1-hydroxy-4-methylpent-3-enyl)naphthalene-1,4-dione] | 10.4~34.7 μM | 101 |  |  |  | IC50 (5-Lipoxygenase): 0.39 µM; inhibition at 1 µM (5-Lipoxygenase): 70%; inhibition at 1 µg/mL (5-Lipoxygenase): 51%; IC50 (5-Lipoxygenase; 5-Lipoxygenase, IC50, Table 2B): 2.93 µM |
| Gentamicin [reference compound] |  |  | 2.1 |  |  |  |
| epigallocatechin-3 gallate [EGCG, reference compound] |  |  |  |  |  | % Inhibition (5-Lipoxygenase; Table 2B, concentration 100 μM): 58%; IC50 (5-Lipoxygenase; [5]): 87.2 µM |
